{"source": "ChEMBL document CHEMBL4229476", "about": "“Studies directed toward the asialoglycoprotein receptor mediated delivery of 5-fluoro-2'-deoxyuridine for hepatocellular carcinoma” (Bioorg Med Chem Lett, 2018)", "test_system": "HepG2", "test": "Cytotoxicity against human HepG2 cells at 1.5 to 200 uM after 72 hrs by WST1 assay", "type": "functional, cell-based", "note": "Calls of active or inactive are those of the source. No cut-off for these calls is given here.", "data": [{"smiles": "O=c1[nH]c(=O)n([C@H]2C[C@H](O)[C@@H](CO)O2)cc1F", "values": [{"measurement": "Activity", "value": "Active"}]}, {"smiles": "CC(=O)N[C@H]1[C@H](OCCCCCCNC(=O)CCOCC(COCCC(=O)NCCCCCCO[C@@H]2O[C@H](CO)[C@H](O)[C@H](O)[C@H]2NC(C)=O)(COCCC(=O)NCCCCCCO[C@@H]2O[C@H](CO)[C@H](O)[C@H](O)[C@H]2NC(C)=O)NC(=O)CCCC(=O)NCCCCCCOP(=O)(O)OC[C@H]2O[C@@H](n3cc(F)c(=O)[nH]c3=O)C[C@@H]2O)O[C@H](CO)[C@H](O)[C@@H]1O", "values": [{"measurement": "Activity", "value": "Active"}]}]}
